{"source": "PubChem BioAssay (NCI)", "assay_in_all_cases": "NCI tumour cell line growth inhibition, 48 h", "key": {"NCI-H226 lung": {"test_system": "NCI-H226 lung"}, "NCI-H23 lung": {"test_system": "NCI-H23 lung"}, "NCI-H460 lung": {"test_system": "NCI-H460 lung"}, "NCI-H522 lung": {"test_system": "NCI-H522 lung"}, "NCI/ADR-RES ovarian": {"test_system": "NCI/ADR-RES ovarian"}, "OVCAR-3 ovarian": {"test_system": "OVCAR-3 ovarian"}, "OVCAR-4 ovarian": {"test_system": "OVCAR-4 ovarian"}, "OVCAR-5 ovarian": {"test_system": "OVCAR-5 ovarian"}, "OVCAR-8 ovarian": {"test_system": "OVCAR-8 ovarian"}, "PC-3 prostate": {"test_system": "PC-3 prostate"}, "RPMI-8226 leukemia": {"test_system": "RPMI-8226 leukemia"}, "RXF 393 renal": {"test_system": "RXF 393 renal"}, "SF-268 CNS": {"test_system": "SF-268 CNS"}, "SF-295 CNS": {"test_system": "SF-295 CNS"}, "SF-539 CNS": {"test_system": "SF-539 CNS"}, "SK-MEL-2 melanoma": {"test_system": "SK-MEL-2 melanoma"}, "SK-MEL-28 melanoma": {"test_system": "SK-MEL-28 melanoma"}, "SK-MEL-5 melanoma": {"test_system": "SK-MEL-5 melanoma"}, "SK-OV-3 ovarian": {"test_system": "SK-OV-3 ovarian"}, "SN12C renal": {"test_system": "SN12C renal"}, "SNB-19 CNS": {"test_system": "SNB-19 CNS"}, "SNB-75 CNS": {"test_system": "SNB-75 CNS"}, "SR leukemia": {"test_system": "SR leukemia"}, "SW-620 colon": {"test_system": "SW-620 colon"}, "T-47D breast": {"test_system": "T-47D breast"}, "TK-10 renal": {"test_system": "TK-10 renal"}, "U251 CNS": {"test_system": "U251 CNS"}, "UACC-257 melanoma": {"test_system": "UACC-257 melanoma"}, "UACC-62 melanoma": {"test_system": "UACC-62 melanoma"}, "UO-31 renal": {"test_system": "UO-31 renal"}}, "note": "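Cultured in 96-well plates, cells were exposed to test compound for 48 hours across five concentrations. Abbreviation: GI50, concentration required for 50% inhibition of growth. The concentration for full growth arrest is given as TGI.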", "data": [{"compound": "COc1ccc(Nc2nc(N)n(Cc3cccc(Br)c3)n2)cc1", "values": [{"measurement": "TGI", "setting": "NCI-H226 lung", "result": "> 100", "unit": "µM"}, {"measurement": "GI50", "setting": "NCI-H23 lung", "result": 32.7, "unit": "µM"}, {"measurement": "TGI", "setting": "NCI-H23 lung", "result": "> 100", "unit": "µM"}, {"measurement": "GI50", "setting": "NCI-H460 lung", "result": 36.2, "unit": "µM"}, {"measurement": "TGI", "setting": "NCI-H460 lung", "result": "> 100", "unit": "µM"}, {"measurement": "GI50", "setting": "NCI-H522 lung", "result": 26.5, "unit": "µM"}, {"measurement": "TGI", "setting": "NCI-H522 lung", "result": "> 100", "unit": "µM"}, {"measurement": "GI50", "setting": "NCI/ADR-RES ovarian", "result": 33.3, "unit": "µM"}, {"measurement": "TGI", "setting": "NCI/ADR-RES ovarian", "result": "> 100", "unit": "µM"}, {"measurement": "GI50", "setting": "OVCAR-3 ovarian", "result": 35.8, "unit": "µM"}, {"measurement": "TGI", "setting": "OVCAR-3 ovarian", "result": "> 100", "unit": "µM"}, {"measurement": "GI50", "setting": "OVCAR-4 ovarian", "result": 31.7, "unit": "µM"}, {"measurement": "TGI", "setting": "OVCAR-4 ovarian", "result": "> 100", "unit": "µM"}, {"measurement": "GI50", "setting": "OVCAR-5 ovarian", "result": 50.3, "unit": "µM"}, {"measurement": "TGI", "setting": "OVCAR-5 ovarian", "result": "> 100", "unit": "µM"}, {"measurement": "GI50", "setting": "OVCAR-8 ovarian", "result": 42.1, "unit": "µM"}, {"measurement": "TGI", "setting": "OVCAR-8 ovarian", "result": "> 100", "unit": "µM"}, {"measurement": "GI50", "setting": "PC-3 prostate", "result": 25.9, "unit": "µM"}, {"measurement": "TGI", "setting": "PC-3 prostate", "result": "> 100", "unit": "µM"}, {"measurement": "GI50", "setting": "RPMI-8226 leukemia", "result": 29.5, "unit": "µM"}, {"measurement": "TGI", "setting": "RPMI-8226 leukemia", "result": "> 100", "unit": "µM"}, {"measurement": "GI50", "setting": "RXF 393 renal", "result": 14.3, "unit": "µM"}, {"measurement": "TGI", "setting": "RXF 393 renal", "result": 66, "unit": "µM"}, {"measurement": "GI50", "setting": "SF-268 CNS", "result": 27.2, "unit": "µM"}, {"measurement": "TGI", "setting": "SF-268 CNS", "result": "> 100", "unit": "µM"}, {"measurement": "GI50", "setting": "SF-295 CNS", "result": 28, "unit": "µM"}, {"measurement": "TGI", "setting": "SF-295 CNS", "result": "> 100", "unit": "µM"}, {"measurement": "GI50", "setting": "SF-539 CNS", "result": 29.6, "unit": "µM"}, {"measurement": "TGI", "setting": "SF-539 CNS", "result": "> 100", "unit": "µM"}, {"measurement": "GI50", "setting": "SK-MEL-2 melanoma", "result": 31.1, "unit": "µM"}, {"measurement": "TGI", "setting": "SK-MEL-2 melanoma", "result": "> 100", "unit": "µM"}, {"measurement": "GI50", "setting": "SK-MEL-28 melanoma", "result": 35.7, "unit": "µM"}, {"measurement": "TGI", "setting": "SK-MEL-28 melanoma", "result": "> 100", "unit": "µM"}, {"measurement": "GI50", "setting": "SK-MEL-5 melanoma", "result": 19.5, "unit": "µM"}, {"measurement": "TGI", "setting": "SK-MEL-5 melanoma", "result": 44, "unit": "µM"}, {"measurement": "GI50", "setting": "SK-OV-3 ovarian", "result": 93.2, "unit": "µM"}, {"measurement": "TGI", "setting": "SK-OV-3 ovarian", "result": "> 100", "unit": "µM"}, {"measurement": "GI50", "setting": "SN12C renal", "result": 33.4, "unit": "µM"}, {"measurement": "TGI", "setting": "SN12C renal", "result": "> 100", "unit": "µM"}, {"measurement": "GI50", "setting": "SNB-19 CNS", "result": 48.3, "unit": "µM"}, {"measurement": "TGI", "setting": "SNB-19 CNS", "result": "> 100", "unit": "µM"}, {"measurement": "GI50", "setting": "SNB-75 CNS", "result": 13.9, "unit": "µM"}, {"measurement": "TGI", "setting": "SNB-75 CNS", "result": "> 100", "unit": "µM"}, {"measurement": "GI50", "setting": "SR leukemia", "result": 91.7, "unit": "µM"}, {"measurement": "TGI", "setting": "SR leukemia", "result": "> 100", "unit": "µM"}, {"measurement": "GI50", "setting": "SW-620 colon", "result": 57.5, "unit": "µM"}, {"measurement": "TGI", "setting": "SW-620 colon", "result": "> 100", "unit": "µM"}, {"measurement": "GI50", "setting": "T-47D breast", "result": 44.5, "unit": "µM"}, {"measurement": "TGI", "setting": "T-47D breast", "result": "> 100", "unit": "µM"}, {"measurement": "GI50", "setting": "TK-10 renal", "result": 61.7, "unit": "µM"}, {"measurement": "TGI", "setting": "TK-10 renal", "result": "> 100", "unit": "µM"}, {"measurement": "GI50", "setting": "U251 CNS", "result": 42.1, "unit": "µM"}, {"measurement": "TGI", "setting": "U251 CNS", "result": "> 100", "unit": "µM"}, {"measurement": "GI50", "setting": "UACC-257 melanoma", "result": 38.3, "unit": "µM"}, {"measurement": "TGI", "setting": "UACC-257 melanoma", "result": "> 100", "unit": "µM"}, {"measurement": "GI50", "setting": "UACC-62 melanoma", "result": 32.8, "unit": "µM"}, {"measurement": "TGI", "setting": "UACC-62 melanoma", "result": "> 100", "unit": "µM"}, {"measurement": "GI50", "setting": "UO-31 renal", "result": 17, "unit": "µM"}, {"measurement": "TGI", "setting": "UO-31 renal", "result": "> 100", "unit": "µM"}]}]}
